The text below walks through data of US6897287B1, “Ro/SSA peptide reagents for diagnosis of autoantibodies” (Oklahoma Medical Research Foundation, priority 1990, dated 2005).

Assay [1] concerns affinity purified anti-La/SSB antibodies. Description: Pin ELISA of La/SSB octapeptides with affinity purified anti-La/SSB antibodies. To be noted: for enrichment of binding relative to the serum: affinity enriched preparation, patient E11, peak or average reactivities; for binding by affinity enriched anti-La/SSB preparation: preparation from patient E11. It is filed as binding, human. The protocol:
Solid Phase Anti-peptide Assay. All steps were carried out by immersing the pin blocks into microtiter plate wells. Pins were incubated in blocking buffer (1% bovine serum albumin (BSA) in phosphate buffered saline (PBS), pH 7.2) for 1 h at room temperature and then in 1:100 dilutions of sera in diluent (1% BSA and 0.05% Tween in PBS) overnight at […] in humidified containers. Pin blocks were washed four times with wash buffer (0.05% Tween in PBS) for 10 min with agitation and then immersed for 1 h at room temperature in affinity purified goat anti-human-chain specific antibody conjugated to alkaline phosphatase (Sigma Chemical Co., St. Louis, Mo.) diluted 1:1000 in diluent. After washing as above, pins were incubated in para-nitrophenyl phosphate solution at 37° C. for 2 h. Color development was read at 410 nm on a DYNATECH® MR5000 ELISA plate reader.
Samples. Sera from five normal, healthy donors and ten patients with primary SS and/or SLE were screened by pin ELISA for antibodies binding to the La/SSB octapeptides. Eight of these ten patients had both anti-Ro/SSA and anti-La/SSB precipitin forming autoantibodies, and seven of these eight had borne children with congenital heart block (CCHB). Two patients had antibodies to Ro/SSA alone. Anti-La/SSB antibodies were affinity purified from the sera of two patients on La/SSB cross-linked immunosorbents as described by Horsfall, et al., J. Immunol. Meth. 104:43 (1987).
Anti-La/SSB antibodies from two patients have been affinity purified on La/SSB cross-linked immunosorbents. […] The affinity enriched preperation binds 17 of the 18 previously identified epitopes, the exception being epitope 17 (octapeptide 379); however, this preperation does bind octapeptides adjacent to epitope 17, particularly octapeptides 380 and 382. Those putative epitopes in which the binding is most enriched include epitopes 2, 3, 6, 9, 10, 12, 13 and 15. These same epitopes appear enriched whether peak or average reactivities for each putative epitope are compared. Essentially the same results have been obtained from an affinity enriched preparation of the anti-La/SSB from a second patient.

Assay [2] concerns anti-Sm and anti-nRNP precipitin sera (IgG). As to the kind of experiment: Solid phase antipeptide assay of Sm B/B' and related peptides with Sm, nRNP precipitin positive sera. It is filed as binding, human. The following applies: for antigenicity / reactivity in words: sera 1/100, Sm and nRNP precipitin positive SLE patients. The protocol:
Sera. Human sera form patients who satisfied the classification criteria of the American Rheumatism Association for SLE or normal age-matched, sex-matched controls were used in this study. Fifteen sera from lupus patients were tested. Ten of these sera tested contained antibodies that formed strong precipitin lines with both Sm and nRNP, three formed precipitin lines with only nRNP, one formed a precipitin line with Ro/SSA and La/SSB, and one formed a precipitin line with only Ro/SSA. All of these serologic findings were confirmed by appropriate molecular weight bands for the reported antigen being bound in immunoblot by the respective sera.
Solid-phase noncleavable peptide synthesis. The published sequence of Sm B/B′ was used to construct all the possible overlapping octapeptides. The amino acids used for peptide synthesis had Fmoc protected primary amino groups and t-butyl (or other appropriate group) protected side chains. Overlapping octapeptides were simultaneously synthesized at the rounded ends of radiation derivatized polyethylene pins that were arranged in the format of a 96 well microliter plate (Cambridge Research Biochemicals. Cambridge, UK and Coselco Mimotopes Pty Ltd. Victoria, Australia) The active esters of Fmoc, t-butyl amino acid solutions (30 mM) were solubilized in DMF that had […] added to a final concentration of 30 mM and dispensed into the wells of a microliter plate. Each amino acid was added as determined by the 240 amino acids of the Raji Sm B/B′ sequence. After 18 h of incubation, the pins were washed in DMF for 5 min. four times at 2 min each in methanol, and once again in DMF for 5 min. The Fmoc protecting groups were then removed from the newly added amino acid by a 20% piperidine/DMF bath for 30 min. These steps were repeated until all eight amino acids were added. After the final amino acid, the amino terminal groups of each peptide was acetylated by incubating the pins in a 5:2:1 (v/v/v) mixture of DMF:acetic anhydride: triethylamine for 90 min at room temperature. After this step the pins were again washed in DMF for 2 min, four times at 2 min each in methanol, and then air-dried for 10 min. Finally, side chain amino protecting groups were removed by […] (v/w/v) of trifluoracetic acid:phenol:ethanedithiol. Wash steps included 2 min in methylene chloride, two times at 5 min each in 5% […]/methylene chloride, and a final methylene chloride wash for 5 min. After drying for 10 min., pins were placed in distilled water for 2 min., transferred to a methanol bath for 18 h. and dried under vacuum for 18 h. This procedure was repeated to synthesize another set of the carboxyl-terminal 36 octapeptides to allow substantiation of the previous data. In addition other octapeptides, including the amino acid changes seen in the vanDam/Ohosone Proc. Natl. Acad. Sci. USA 86:4249 (1989) sequences, were also synthesized. Selected substitution and deletion sequences, along with similar sequences from other proteins, were also constructed. Control pins composed of amino acids in a random sequence were prepared that were not present in any of the Sm or nRNP antigen sequences. In addition, positive control pins were synthesized from a known reactive sequence of the La/SSB peptide.
Solid phase antipeptide assay. Wash steps and incubations were carried out in sealed plastic containers. Other assay steps were performed by lowering the pins into microliter plate wells. First, pins were blocked with 3% low-fat milk in PBS for 1 h at room temperature. Pins were then incubated in 1/100 dilutions of sera in 3% milk/PBS with 0.05% TWEEN® (surfactant) overnight at 4° C. in humidified sealed containers. The pin blocks were then washed four times with PBS with 0.05% TWEEN® (surfactant) for 10 min each with vigorous agitation. […]

In assay [3] the test system is KSm 3 monoclonal autoantibody. As to the kind of experiment: Binding of monoclonal antibody KSm 3 to Sm B/B' octapeptides. On the set-up: species or system MRL lpr/lpr mouse. The following applies: hybridoma supernatant. The source says:
Autoantibodies binding the Sm B and B′ peptides (B/B′) are commonly associated with systemic lupus erythernatosus in man and in MRL lpr/lpr mice. KSm 3 and KSm 5 were derived from an unmanipulated MRL lpr/lpr mouse using hybridoma monoclonal antibody technology. Supernatants containing KSm 3 and KSm 5 monoclonal antibodies were collected from cloned murine hybridoma cell lines in RPMI 1640 with 10% fetal bovine serum, glutamine, penicillin and streptomycin. These monoclonal autoantibodies are both of the IgG2a subclass. The linear antigenic regions of these two anti-Sm B/B′ murine monoclonal autoantibodies have been mapped using overlapping octapeptides. Unique epitopes are identified by each monoclonal. Monoclonal antibody KSm 5 recognizes the peptide, PPPGMRPP (amino acids 4-11 of SEQ ID NO:14), which is repeated three times in the Sm B polypeptide. […] Both of these regions of Sm B/B′ are major areas of antigericity for human anti-Sm autoantibodies. […] When the arginine in the sixth position PPPGMRPP (amino acids 4-11 of SEQ ID NO:14) is substituted KSm 5 binding is found in an unexpected subset of octapeptides. […] In contrast, binding of KSm 3 to PPPGIRPP (SEQ ID NO:122) is abolished when the sixth position arginine is substituted by any other amino acid. These two murine autoantibodies bind distinct linear epitopes of Sm B/B′ which are also bound by human anti-Sm B/B′ autoantibodies. […]

Assay [4] deals with antibody of patient serum. Description: Solid phase assay of nRNP (70 kD, A, C) octapeptides with patient sera. Format: binding, human. The following applies: nRNP A sequences marked (*). The text has this:
The sequence of the 70 kD nuclear ribonucleoprotein (nRNP) is reported by R. A. Spritz, et al., in Nucleic Acids Res. 24: 10373-10391 (1987), the teachings of which are incorporated herein. The data analysis is done the same as for the Ro/SSA and La/SSB antigens. Each sequence identified represents the binding of antibody to octapetides that exceed arbitrary criteria in the solid phase assay. The identified antigenic regions are more than two standard deviations above the mean of normal sera and are bound by more than half of the patients. For the binding to the 70 kD peptide, the threshold in the assay is A410 of 0.380. The numbers in parentheses are the sequence positions of the first amino acid in the first octapeptide that exceeds the threshold. Each identified sequence is composed of one or more octapeptides. The number of octapeptides in each sequence is the length of the sequence […]. The underlined part of the sequence is the octapeptide that is bound most by the patient serum. In some cases, another octapeptide is essentially equivalent but not underlined.

“Also recorded” adds a separate entry of the source. Where no end group is shown, it is not given here.

As for IFVVFDSIE [epitope 9], the “enrichment of binding relative to the serum” value in assay [1] is recorded as “most enriched”.

Regarding REDLHILF [epitope 15], in assay [1], the “enrichment of binding relative to the serum” value is given as “most enriched”.

As to DCDEFRKI (homo sapien) [octapeptide 44], in assay [2], the “antigenicity / reactivity in words” value is given as “Binding is lost”.

For the substance “octapeptide 382: La/SSB octapeptide adjacent to epitope 17, starting at amino acid 382 (VKRAREET; UniProt P05455 382-389, looked up, fragment)”, the “binding by affinity enriched anti-La/SSB preparation” value in assay [1] is “does bind”.

As to “octapeptide 380: La/SSB octapeptide adjacent to epitope 17, starting at amino acid 380 (GPVKRARE; UniProt P05455 380-387, looked up, fragment)”, the “binding by affinity enriched anti-La/SSB preparation” value in assay [1] is on record as “does bind”.

“PPPGMRP (PPPGMXP; homo sapien; (3)..(10) Binding site)”: the “antigenicity / reactivity in words” value in assay [2] is given as “does not appear to significantly alter binding”.

In the case of WVPLEIMIKFNR [epitope 3], in assay [1], the “enrichment of binding relative to the serum” value was “most enriched”.

Regarding ICHQIEYYFGDFNLPRDKFLK [epitope 2], the “enrichment of binding relative to the serum” value in assay [1] was “most enriched”.

Regarding “PPPGM (homo sapien; (3)..(10) Binding site)”, in assay [2] (deletion peptides, six patient sera), the “reactivity to the PPPGMRPP motif destroyed” value is on record as “Greater than 60%”.

For PGIRGPPP (homo sapien), in assay [3], the “binding by KSm 3 in words” value is given as “binds best”.

Take LVSRSLKMRQAF: the “proportion of sera binding” value in assay [4] is “bound by a subset of the sera tested”.

Consider GEIKWIDFVRGAK [epitope 6], for which, in assay [1], the “enrichment of binding relative to the serum” value is “most enriched”.

With ERDRKREKRKPKS, the “proportion of sera binding” value in assay [4] is recorded as “bound by a subset of the sera tested”.

On to EGIILFKEKAK [epitope 13], for which the “enrichment of binding relative to the serum” value in assay [1] is recorded as “most enriched”.

PPPP (homo sapien): in assay [2], the “antigenicity / reactivity in words” value was “no solely poly-proline sequence tested”.

PPPGMR (not fully specified): in assay [2], the “antigenicity / reactivity in words” value was “does not appear to significantly alter binding”.

For PPPPP (homo sapien), in assay [2], the “antigenicity / reactivity in words” value is on record as “no solely poly-proline sequence tested”.

For the substance PPPGIRGP (listed as Homo sapiens), in assay [2], the “antigenicity / reactivity in words” value is “bound by all the Sm, nRNP sera tested”. Also, in assay [3], the “binding by KSm 3 in words” value was “binds best”.

As for PPPGMIPP (homo sapien), the entries for the “antigenicity / reactivity in words” value in assay [2] and in assay [2] (listed as nRNP A) were “not antigenic; also recorded: does not bind” and “relatively no reactivity”, respectively.

For the substance PKNAKQPE (homo sapien) [octapeptide 53], the “antigenicity / reactivity in words” value in assay [2] is “Binding is lost”.

Regarding TDFNVIVEA [epitope 12], the “enrichment of binding relative to the serum” value in assay [1] is “most enriched”.

As to PAPGMRPP (homo sapien), the “antigenicity / reactivity in words” value in assay [2] was “as antigenic as PPPGMRPP”. For the same substance, the “original reactivity (binding) of PPPGMRPP retained” value in assay [2] (substituted or homologous octapeptides, six patient sera) is listed as “over 90%”.

Turning to KETDLLILFKDDYFA [epitope 10], in assay [1], the “enrichment of binding relative to the serum” value is listed as “most enriched”.

Take PPP: the “antigenicity / reactivity in words” value in assay [2] is recorded as “no solely poly-proline sequence tested”.
